According to ChEMBL document CHEMBL2429845, “Design, synthesis, and antimicrobial activity of some novel homodrimane sesquiterpenoids with diazine skeleton” (2013):

Experiments:
Pseudomonas aeruginosa [1] = assay: Antibacterial activity against Pseudomonas aeruginosa ATCC 27853 at 25 ug/disk after 24 hrs by agar diffusion assay; assay type: functional; conditions: ATCC 27853, 24 h, read-out: DIZ
Escherichia coli [2] = assay: Antibacterial activity against Escherichia coli ATCC 25922 at 25 ug/disk after 24 hrs by agar diffusion assay; assay type: functional; conditions: ATCC 25922, 24 h, read-out: DIZ
Bacillus subtilis [3] = assay: Antibacterial activity against Bacillus subtilis at 25 ug/disk after 24 hrs by agar diffusion assay; assay type: functional; conditions: read-out: DIZ
Bacillus cereus [4] = assay: Antibacterial activity against Bacillus cereus ATCC 14579 at 25 ug/disk after 24 hrs by agar diffusion assay; assay type: functional; conditions: ATCC 14579, 24 h, read-out: DIZ
Micrococcus luteus [5] = assay: Antibacterial activity against Sarcina lutea ATCC 9341 at 25 ug/disk after 24 hrs by agar diffusion assay; assay type: functional; conditions: ATCC 9341, 24 h, read-out: DIZ
Staphylococcus aureus [6] = assay: Antibacterial activity against Staphylococcus aureus ATCC 25923 at 25 ug/disk after 24 hrs by agar diffusion assay; assay type: functional; conditions: ATCC 25923, 24 h, read-out: DIZ
Pseudomonas aeruginosa [7] = assay: Antibacterial activity against Pseudomonas aeruginosa ATCC 27853 at 30 ug/disk after 24 hrs by agar diffusion assay; assay type: functional; conditions: ATCC 27853, 24 h, read-out: DIZ
Escherichia coli [8] = assay: Antibacterial activity against Escherichia coli ATCC 25922 at 30 ug/disk after 24 hrs by agar diffusion assay; assay type: functional; conditions: ATCC 25922, 24 h, read-out: DIZ
Bacillus subtilis [9] = assay: Antibacterial activity against Bacillus subtilis at 30 ug/disk after 24 hrs by agar diffusion assay; assay type: functional; conditions: read-out: DIZ
Bacillus cereus [10] = assay: Antibacterial activity against Bacillus cereus ATCC 14579 at 30 ug/disk after 24 hrs by agar diffusion assay; assay type: functional; conditions: ATCC 14579, 24 h, read-out: DIZ
Micrococcus luteus [11] = assay: Antibacterial activity against Sarcina lutea ATCC 9341 at 30 ug/disk after 24 hrs by agar diffusion assay; assay type: functional; conditions: ATCC 9341, 24 h, read-out: DIZ
Staphylococcus aureus [12] = assay: Antibacterial activity against Staphylococcus aureus ATCC 25923 at 30 ug/disk after 24 hrs by agar diffusion assay; assay type: functional; conditions: ATCC 25923, 24 h, read-out: DIZ
[Candida] sake [13] = Antifungal activity against Candida sake at 10 mg/ml after 48 hrs by agar diffusion assay; assay type: functional; conditions: Fermentozyma sake, read-out: DIZ
Nakaseomyces glabratus [14] = assay: Antifungal activity against Candida glabrata ATCC MYA 2950 at 10 mg/ml after 48 hrs by agar diffusion assay; assay type: functional; conditions: ATCC MYA 2950, 48 h, read-out: DIZ
Candida albicans [15] = assay: Antifungal activity against Candida albicans ATCC 10231 at 10 mg/ml after 48 hrs by agar diffusion assay; assay type: functional; conditions: ATCC 10231, 48 h, read-out: DIZ
Pseudomonas aeruginosa [16] = assay: Antibacterial activity against Pseudomonas aeruginosa ATCC 27853 at 10 mg/ml after 24 hrs by agar diffusion assay; assay type: functional; conditions: ATCC 27853, 24 h, read-out: DIZ
Escherichia coli [17] = assay: Antibacterial activity against Escherichia coli ATCC 25922 at 10 mg/ml after 24 hrs by agar diffusion assay; assay type: functional; conditions: ATCC 25922, 24 h, read-out: DIZ
Bacillus subtilis [18] = assay: Antibacterial activity against Bacillus subtilis at 10 mg/ml after 24 hrs by agar diffusion assay; assay type: functional; conditions: read-out: DIZ
Bacillus cereus [19] = assay: Antibacterial activity against Bacillus cereus ATCC 14579 at 10 mg/ml after 24 hrs by agar diffusion assay; assay type: functional; conditions: ATCC 14579, 24 h, read-out: DIZ
Micrococcus luteus [20] = assay: Antibacterial activity against Sarcina lutea ATCC 9341 at 10 mg/ml after 24 hrs by agar diffusion assay; assay type: functional; conditions: ATCC 9341, 24 h, read-out: DIZ
Staphylococcus aureus [21] = assay: Antibacterial activity against Staphylococcus aureus ATCC 25923 at 10 mg/ml after 24 hrs by agar diffusion assay; assay type: functional; conditions: ATCC 25923, 24 h, read-out: DIZ
[Candida] sake [22] = Antifungal activity against Candida sake 100 mg/disk after 48 hrs by agar diffusion assay; assay type: functional, organism-based
Nakaseomyces glabratus [23] = assay: Antifungal activity against Candida glabrata ATCC MYA 2950 100 mg/disk after 48 hrs by agar diffusion assay; assay type: functional, organism-based
Candida albicans [24] = assay: Antifungal activity against Candida albicans ATCC 10231 at 100 mg/disk after 48 hrs by agar diffusion assay; assay type: functional, organism-based

Row | Compound | zone of inhibition at 10000 µg/mL ([Candida] sake [13]) [mm] | zone of inhibition at 10000 µg/mL (Nakaseomyces glabratus [14]) [mm] | zone of inhibition at 10000 µg/mL (Candida albicans [15]) [mm] | zone of inhibition at 10000 µg/mL (Pseudomonas aeruginosa [16]) [mm] | zone of inhibition at 10000 µg/mL (Escherichia coli [17]) [mm] | zone of inhibition at 10000 µg/mL (Bacillus subtilis [18]) [mm] | zone of inhibition at 10000 µg/mL (Bacillus cereus [19]) [mm] | zone of inhibition at 10000 µg/mL (Micrococcus luteus [20]) [mm] | zone of inhibition at 10000 µg/mL (Staphylococcus aureus [21]) [mm] | also measured
1 | CC1(C)S[C@@H]2[C@H](NC(=O)[C@H](N)c3ccccc3)C(=O)N2[C@H]1C(=O)O [AMPICILLIN] |  |  |  |  |  |  |  |  |  | zone of inhibition at 25 µg/disc (Pseudomonas aeruginosa [1]): 0 mm; zone of inhibition at 25 µg/disc (Escherichia coli [2]): 20 mm; zone of inhibition at 25 µg/disc (Bacillus subtilis [3]): 25 mm; zone of inhibition at 25 µg/disc (Bacillus cereus [4]): 0 mm; zone of inhibition at 25 µg/disc (Micrococcus luteus [5]): 30 mm; zone of inhibition at 25 µg/disc (Staphylococcus aureus [6]): 25 mm
2 | O=C(N[C@H](CO)[C@H](O)c1ccc([N+](=O)[O-])cc1)C(Cl)Cl [CHLORAMPHENICOL] |  |  |  |  |  |  |  |  |  | zone of inhibition at 30 µg/disc (Pseudomonas aeruginosa [7]): 19 mm; zone of inhibition at 30 µg/disc (Escherichia coli [8]): 29 mm; zone of inhibition at 30 µg/disc (Bacillus subtilis [9]): 31 mm; zone of inhibition at 30 µg/disc (Bacillus cereus [10]): 28 mm; zone of inhibition at 30 µg/disc (Micrococcus luteus [11]): 30 mm; zone of inhibition at 30 µg/disc (Staphylococcus aureus [12]): 25 mm
3 | C=C1CC[C@H]2C(C)(C)CCC[C@]2(C)[C@H]1CC(=O)Nc1cnccn1 | 0 | 0 | 0 | 0 | 0 | 0 | 10 | 0 | 15 | 
4 | NYSTATIN |  |  |  |  |  |  |  |  |  | inhibition zone (IZ) ([Candida] sake [22]): 31 mm; inhibition zone (IZ) (Nakaseomyces glabratus [23]): 26 mm; inhibition zone (IZ) (Candida albicans [24]): 29 mm
5 | C=C1CC[C@H]2C(C)(C)CCC[C@]2(C)[C@H]1CC(=O)N(C(=O)C[C@H]1C(=C)CC[C@H]2C(C)(C)CCC[C@]12C)c1ncccn1 | 0 | 0 | 0 | 10 | 0 | 0 | 0 | 0 | 10 | 
6 | C=C1CC[C@H]2C(C)(C)CCC[C@]2(C)[C@H]1CC(=O)Nc1ccncn1 | 0 | 0 | 0 | 0 | 12 | 7 | 10 | 18 | 15 | 
7 | C=C1CC[C@H]2C(C)(C)CCC[C@]2(C)[C@H]1CC(=O)Nc1ncccn1 | 0 | 0 | 0 | 0 | 10 | 7 | 12 | 19 | 14 | 
8 | C=C1CC[C@H]2C(C)(C)CCC[C@]2(C)[C@H]1CC(=O)N(C(=O)NC1CCCCC1)C1CCCCC1 | 0 | 0 | 0 | 0 | 0 | 0 | 11 | 0 | 19 | 
